In the supplement of paper PMC10307832:

What was measured:
Assay in all cases: relative viability (nuclei count vs DMSO), 5 days (fraction); higher = more cells survive
NCI-H23 = tested on: NCI-H23
Method in brief: (§1)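 Nuclei were stained with Hoechst during a one-step fixation (final 0.05% Triton X-100, 1% formaldehyde, 1 ug/ml Hoechst) carried out 5 days after dosing, then counted on 4× images. The cells, lung cancer lines in 1536-well plates, had been dosed by pin tool the day after seeding with one drug alone or a fixed anchor-drug dose plus five library-drug doses (not always all listed) in √10 steps. Relative viability is the nuclei count in treated wells divided by that in vehicle wells, and each value is the median of duplicate plates.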

NCI-H2087 = tested on: NCI-H2087
Method in brief: as §1

HCC-827 = tested on: HCC-827
Method in brief: as §1

NCI-H2405 = tested on: NCI-H2405
Method in brief: as §1

NCI-H1666 = tested on: NCI-H1666
Method in brief: as §1

ChaGo-K-1 = tested on: ChaGo-K-1
Method in brief: as §1

RERF-LC-KJ = tested on: RERF-LC-KJ
Method in brief: as §1

NCI-H1915 = tested on: NCI-H1915
Method in brief: as §1

NCI-H650 = tested on: NCI-H650
Method in brief: as §1

COR-L 105 = tested on: COR-L 105
Method in brief: as §1

H3255 = tested on: H3255
Method in brief: as §1

NCI-H2126 = tested on: NCI-H2126
Method in brief: as §1

For `CC1(C)CCC(c2ccc(Cl)cc2)=C(CN2CCN(c3ccc(C(=O)NS(=O)(=O)c4ccc(N[C@H](CCN5CCOCC5)CSc5ccccc5)c(S(=O)(=O)C(F)(F)F)c4)cc3)CC2)C1` [Navitoclax] + N=C(N)NC(=N)NCCc1ccccc1 [Phenformin] (partner 250 µM), the relative viability (NCI-H23; first compound 0.1581 µM) was 0.783, the relative viability (NCI-H23; first compound 0.5 µM) was 0.799 and the relative viability (NCI-H2087; first compound 0.005 µM) was 0.475. It also gave a relative viability (NCI-H2087; first compound 0.01581 µM) of 0.452, a relative viability (NCI-H2087; first compound 0.1581 µM) of 0.407 and a relative viability (NCI-H2087; first compound 0.5 µM) of 0.428. The relative viability (HCC-827; first compound 0.005 µM) was 0.404, the relative viability (HCC-827; first compound 0.01581 µM) was 0.434 and the relative viability (HCC-827; first compound 0.05 µM) was 0.355. The relative viability (HCC-827; first compound 0.1581 µM) was 0.396, the relative viability (HCC-827; first compound 0.5 µM) was 0.382 and the relative viability (NCI-H2405; first compound 0.005 µM) was 0.413. It also gave a relative viability (NCI-H2405; first compound 0.01581 µM) of 0.44, a relative viability (NCI-H2405; first compound 0.05 µM) of 0.376 and a relative viability (NCI-H2405; first compound 0.1581 µM) of 0.4. For the same compound, the relative viability (NCI-H2405; first compound 0.5 µM) was 0.303, the relative viability (NCI-H1666; first compound 0.005 µM) was 0.604 and the relative viability (NCI-H1666; first compound 0.01581 µM) was 0.573. For the same compound, the relative viability (NCI-H1666; first compound 0.05 µM) was 0.511, the relative viability (NCI-H1666; first compound 0.1581 µM) was 0.534 and the relative viability (NCI-H1666; first compound 0.5 µM) was 0.559. The relative viability (ChaGo-K-1; first compound 0.005 µM) was 0.459, the relative viability (ChaGo-K-1; first compound 0.01581 µM) was 0.502 and the relative viability (ChaGo-K-1; first compound 0.05 µM) was 0.397. For the same compound, the relative viability (ChaGo-K-1; first compound 0.1581 µM) was 0.48, the relative viability (ChaGo-K-1; first compound 0.5 µM) was 0.501 and the relative viability (RERF-LC-KJ; first compound 0.005 µM) was 0.41. The relative viability (RERF-LC-KJ; first compound 0.01581 µM) was 0.353, the relative viability (RERF-LC-KJ; first compound 0.05 µM) was 0.428 and the relative viability (RERF-LC-KJ; first compound 0.1581 µM) was 0.381. It also gave a relative viability (RERF-LC-KJ; first compound 0.5 µM) of 0.437, a relative viability (NCI-H1915; first compound 0.005 µM) of 0.382 and a relative viability (NCI-H1915; first compound 0.01581 µM) of 0.431. It also gave a relative viability (NCI-H1915; first compound 0.05 µM) of 0.441, a relative viability (NCI-H1915; first compound 0.1581 µM) of 0.42 and a relative viability (NCI-H1915; first compound 0.5 µM) of 0.388. For the same compound, the relative viability (NCI-H650; first compound 0.005 µM) was 0.447, the relative viability (NCI-H650; first compound 0.01581 µM) was 0.473 and the relative viability (NCI-H650; first compound 0.05 µM) was 0.456. For the same compound, the relative viability (NCI-H650; first compound 0.1581 µM) was 0.456, the relative viability (NCI-H650; first compound 0.5 µM) was 0.504 and the relative viability (COR-L 105; first compound 0.005 µM) was 0.464. It also gave a relative viability (COR-L 105; first compound 0.01581 µM) of 0.746, a relative viability (COR-L 105; first compound 0.05 µM) of 0.431 and a relative viability (COR-L 105; first compound 0.1581 µM) of 0.503. The relative viability (COR-L 105; first compound 0.5 µM) was 0.405, the relative viability (H3255; first compound 0.005 µM) was 0.338 and the relative viability (H3255; first compound 0.01581 µM) was 0.399. For the same compound, the relative viability (H3255; first compound 0.05 µM) was 0.376, the relative viability (H3255; first compound 0.1581 µM) was 0.39 and the relative viability (H3255; first compound 0.5 µM) was 0.339. It also gave a relative viability (NCI-H2126; first compound 0.005 µM) of 0.527, a relative viability (NCI-H2126; first compound 0.01581 µM) of 0.53 and a relative viability (NCI-H2126; first compound 0.05 µM) of 0.45. For the same compound, the relative viability (NCI-H2126; first compound 0.1581 µM) was 0.42 and the relative viability (NCI-H2126; first compound 0.5 µM) was 0.444.
